Here are results for 2 molecules from publication PMC5329948, “Caspase vinyl sulfone small molecule inhibitors prevent axonal degeneration in human neurons and reverse cognitive impairment in Caspase-6-overexpressing mice” (Molecular Neurodegeneration, 2017).

Where only a bound is given, the exact number is not on record here.

For one series, the target named is T1, recombinant Caspase-3 (Homo sapiens, UniProt P42574).
T1 construct: purchased BioVision
Nature of the series: Caspase Inhibitor Drug Screening Kit (BioVision), DEVD-AFC substrate. The class given is biochemical. The note with it: not active site titrated. The protocol: (§1) The half-maximal inhibitory concentrations (IC50) for NWL inhibitors (Patent publication # WO/2009/140765, WO/2010/133000, and WO/2012/140500) was determined by incubating 0 to 20 μM NWL-117 and NWL-154 with 20 nM of active site-titrated Casp6 in SB at room temperature for 5 minutes. Then, 10 μM Ac-VEID-AFC was added and fluorescence measured for 20 min at 37 °C as described above. New World Laboratories performed the IC50 determination for NWL inhibitors dissolved in dimethyl sulfoxide (DMSO) against recombinant Casp1-10 using the Caspase Inhibitor Drug Screening Kits (BioVision, San Francisco, CA) following the manufacturer’s instructions and the preferred substrates for the caspases (Caspase-1: WAD-AFC, Caspase-2: VDVAD-AFC, Caspase-3: DEVD-AFC, Caspase-4: LEVD-AFC, Caspase-5: WEHD-AFC, Casp6:VEID-AFC, Caspase-7: DEVD-AFC, Caspase-8: IETD-AFC, Caspase-9: LEHD-AFC, Caspase-10: AEVD-AFC). In transfected HCT116 cells, 0 to 100 μM NWL inhibitors were added in the culture media and left on the cells for 2 h. Cells were washed once with 1 mL ice-cold PBS, incubated on ice for 5 min with 200 μL cell lysis buffer (CLB) (50 mM HEPES, 0.1% CHAPS, 0.1 mM EDTA), and gently scraped off. Protein concentrations were determined by Bradford assay (BioRad, Mississauga, ON, CA) by measuring the absorbance at 595 nm using the BioTek Synergy H4 plate reader. Caspase-6 activity was measured in 40–60 μg total protein as described above. The IC50 for recombinant and cellular caspases were determined using GraphPad Prism 5.0 (La Jolla, CA, USA) using a log (inhibitor) – response curve with a Hill slope of −1.

A further series addresses T2, recombinant Caspase-7 (Homo sapiens, UniProt P55210).
T2 construct: purchased BioVision
The series is described as above. The class given is biochemical. The note with it: not active site titrated. As to the method: as §1

Another series addresses T3, recombinant Caspase-5 (Homo sapiens, UniProt P51878).
T3 construct: purchased BioVision
The experiment in a line: Caspase Inhibitor Drug Screening Kit (BioVision), WEHD-AFC substrate. Format: biochemical. The note with it: not active site titrated. The protocol: as §1, with “Caspase-6 activity was measured in 40–60 μg total protein as described above. The IC50 for recombinant and cellular caspases were determined using GraphPad Prism 5.0 (La Jolla, CA, USA) using a log (inhibitor) – response curve with a Hill slope of −1.” left out

A further series addresses T4, recombinant Caspase-8 (Homo sapiens, UniProt Q14790).
T4 construct: purchased BioVision
The experiment in a line: Caspase Inhibitor Drug Screening Kit (BioVision), IETD-AFC substrate. The note with it: not active site titrated. The class given is biochemical. As to the method:
as §1, with “Caspase-6 activity was measured in 40–60 μg total protein as described above. The IC50 for recombinant and cellular caspases were determined using GraphPad Prism 5.0 (La Jolla, CA, USA) using a log (inhibitor) – response curve with a Hill slope of −1.” left out

In another series the target is T5, recombinant Caspase-10 (Homo sapiens, UniProt Q92851).
T5 construct: purchased BioVision
T5 sequence (Q92851 220-521): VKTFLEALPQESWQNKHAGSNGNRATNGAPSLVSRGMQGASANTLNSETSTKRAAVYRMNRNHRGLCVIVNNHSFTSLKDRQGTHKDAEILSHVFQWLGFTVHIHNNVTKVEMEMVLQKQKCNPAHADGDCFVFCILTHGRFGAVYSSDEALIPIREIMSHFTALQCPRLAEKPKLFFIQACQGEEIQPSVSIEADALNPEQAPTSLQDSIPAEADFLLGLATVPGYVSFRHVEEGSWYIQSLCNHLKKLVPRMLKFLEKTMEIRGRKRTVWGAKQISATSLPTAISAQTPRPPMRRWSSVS
The experiment in a line: Caspase Inhibitor Drug Screening Kit (BioVision), AEVD-AFC substrate. Format: biochemical. The note with it: not active site titrated. The protocol:
as §1, with “Caspase-6 activity was measured in 40–60 μg total protein as described above. The IC50 for recombinant and cellular caspases were determined using GraphPad Prism 5.0 (La Jolla, CA, USA) using a log (inhibitor) – response curve with a Hill slope of −1.” left out

Series [1] deals with primary human CNS neurons. The experiment in a line: Cellular toxicity in primary human neurons (phase contrast, MTT). The class given is cell-based. To be noted: for toxicity in human neurons: concentrations up to 100 μM; for neuronal morphology / mitochondrial reductive potential (MTT): primary human neurons; for neuronal morphology: 100 μM, 24 h; for mitochondrial reductive potential (MTT): 24 or 48 h. As to the method:
HCT116: Human colon carcinoma (HCT116) cells (ATCC, Manassas, VA, USA) were cultured in McCoy’s 5A modified media (Thermo Fisher Scientific, Waltham, MA, USA) supplemented with 10% fetal bovine serum (Thermo Fisher Scientific, Waltham, MA, USA) and transfected with 1 μg of pCep4βCasp6p20p10 mixed with 8 μg of polyethyleneimine (Polysciences Inc., Warrington, PA, USA). Protein expression was allowed for 24 h before treating with vehicle (PBS), 100 μM NWL-117, or 100 μM NWL-154 for 2 h. For NWL inhibitor kinetic experiments, 100 μM of NWL-117 or NWL-154 was added at 120, 90, 60, 30, 15, or 0 min before harvest. […] For recovery time course experiments, after the initial treatment with 100 μM of NWL-117 or −154 for 2 h, the media was replaced with fresh media for 120, 90, 60, 30, 15, or 0 min before harvest. Primary Human CNS neurons: Cortical tissues were obtained from the Birth Defects Research Laboratory (BDRL, University of Washington, Seattle, USA) in accordance with NIH ethical guidelines approved by McGill University’s institutional review board and primary neurons cultured as previously described. Primary human neurons were seeded on poly-L-lysine-coated (5 μg/mL) 6-well plates or glass coverslips coated with poly-L-lysine and laminin (5 μg/mL) (Sigma-Aldrich, Oakville, ON, CA) at a density of 3x10^6 cells/mL. Primary human neurons were pre-treated with 0.1 μM epoxomicin (Enzo LifeSciences, Farmingdale, NY, USA) and 100 μM NWL-117, 100 μM NWL-154, or vehicle (PBS) for 2 h, and serum-deprived for 2 h in the presence of epoxomicin and vehicle (PBS), 100 μM NWL-117, or 100 μM NWL-154 before harvesting or measuring caspase activity with FLICA, as described below.
Immunofluorescence on human neuron cultures: Primary human neurons were pre-treated 2 h and serum-deprived in the presence of 100 μM NWL-117, 100 μM NWL-154, or 5 μM Z-VEID-fmk (Biomol, Plymouth meeting, PA, USA) for 24 h. Following treatment, human neurons were washed once with warm PBS, fixed for 20 min at room temperature with 4% paraformaldehyde (Sigma, Oakville, ON, CA)/4% sucrose (BioRad, Mississauga, ON, CA) for TubΔCasp6 or 2% formaldehyde (Thermo Fisher Scientific, Waltham, MA, USA)/0.2% glutaraldehyde (Sigma, Oakville, ON, CA) for pBudEGFP or pBudEGFP/APP^WT-transfected neurons, incubated in permeabilization buffer (0.1% Triton X-100, 0.1 sodium citrate) for 1 min on ice, washed with PBS, blocked for 20 min at room temperature with 10% goat serum (Sigma, Oakville, ON, CA), and incubated with primary antibodies diluted in 10% goat serum in PBS overnight at 4 °C in a humid chamber. The glass coverslips were washed with PBS, and incubated with goat anti-rabbit secondary antibody coupled to Alexa 488 (Molecular Probes, Eugene, OR, USA) or Cy3 (GE Healthcare Life Sciences, Baie D’Urfe, QC, CA) and Hoechst 33342 (ImmunoChemistry, Bloomington, MN, USA) at 1 μg/mL for 2 h at room temperature. The coverslips were washed with PBS and rinsed in Milli-Q water before mounting in fluoromount (Dako, Burlington, ON, CA). Images were acquired by fluorescence microscopy and quantified using the ImageJ software (NIH, Bethesda, MD, USA) for TubΔCasp6 and manually counted for transfected EGFP(+)-neurons. Time lapse-imaging by live fluorescence microscopy: Primary human neurons were transfected with gold beads coated with pBudEGFP or pBudEGFP/APP^WT using a Helios Gene gun (BioRad, Mississauga, ON, CA). Briefly, cells were pre-treated with 100 μM NWL inhibitors or 5 μM Z-VEID-fmk for 2 h. The media was removed and the neurons were shot at 100 psi. The media was quickly replaced with the inhibitors present. The plasmid was expressed for 16 h before setting up the fluorescence microscope (Nikon Eclipse Ti) to acquire 20 images per condition every hour for 72 h at 37 °C with 5% CO2. The images were analyzed by counting the total number of neurons (50–100 neurons per condition per independent experiment), and the number of beaded, swollen soma, and healthy neurons. […]

T4 sequence (Q14790 217-479): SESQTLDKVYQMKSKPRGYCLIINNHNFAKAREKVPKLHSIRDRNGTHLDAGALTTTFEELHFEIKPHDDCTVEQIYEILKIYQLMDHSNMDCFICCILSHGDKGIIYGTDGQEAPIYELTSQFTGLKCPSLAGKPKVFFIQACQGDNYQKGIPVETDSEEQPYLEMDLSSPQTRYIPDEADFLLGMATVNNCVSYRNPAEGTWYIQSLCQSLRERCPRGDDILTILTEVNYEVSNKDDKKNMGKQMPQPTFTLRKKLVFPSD
T1 sequence (P42574 29-277): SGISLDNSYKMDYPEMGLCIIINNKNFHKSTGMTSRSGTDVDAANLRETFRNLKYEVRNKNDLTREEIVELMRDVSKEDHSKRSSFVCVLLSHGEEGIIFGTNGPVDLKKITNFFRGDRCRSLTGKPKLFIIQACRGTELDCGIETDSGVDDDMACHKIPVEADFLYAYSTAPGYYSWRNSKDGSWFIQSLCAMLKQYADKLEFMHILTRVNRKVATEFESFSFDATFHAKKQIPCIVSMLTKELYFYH
T3 sequence (P51878 137-434): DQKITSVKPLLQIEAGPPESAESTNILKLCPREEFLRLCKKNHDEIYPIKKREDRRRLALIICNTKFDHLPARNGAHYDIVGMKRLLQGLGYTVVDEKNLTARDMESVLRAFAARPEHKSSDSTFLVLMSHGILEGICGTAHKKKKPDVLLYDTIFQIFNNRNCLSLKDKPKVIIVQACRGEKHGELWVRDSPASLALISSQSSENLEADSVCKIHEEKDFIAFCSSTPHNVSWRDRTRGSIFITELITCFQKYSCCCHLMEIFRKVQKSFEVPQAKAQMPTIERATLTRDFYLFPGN
T2 sequence (P55210 whole entry): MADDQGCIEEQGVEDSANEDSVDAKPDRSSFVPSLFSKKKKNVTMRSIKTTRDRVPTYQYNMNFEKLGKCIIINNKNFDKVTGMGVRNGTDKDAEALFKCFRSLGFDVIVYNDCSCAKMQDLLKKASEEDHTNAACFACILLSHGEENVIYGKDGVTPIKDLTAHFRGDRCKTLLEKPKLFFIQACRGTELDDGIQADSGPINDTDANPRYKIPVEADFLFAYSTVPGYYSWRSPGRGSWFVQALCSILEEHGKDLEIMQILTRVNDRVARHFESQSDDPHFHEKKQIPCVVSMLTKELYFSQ

As to `CCC(C)[C@H](NC(=O)[C@H](CCC(=O)O)NC(=O)[C@@H](NC(=O)OCc1ccccc1)C(C)C)C(=O)N[C@H](/C=C/S(C)(=O)=O)CC(=O)O` (stereo partly shown) [NWL-117], the IC50 (as a rule, the concentration that inhibits the measured activity by half) on recombinant Caspase-3 was 6960 nM; at recombinant Caspase-7 it was more than 100000 nM; on recombinant Caspase-5, 19500 nM; on recombinant Caspase-8, 660 nM; on recombinant Caspase-10 it was 130 nM. Also, the “toxicity in human neurons” value in series [1] is listed as “neither NWL-117 nor −154 is toxic”. Further, the neuronal morphology result in series [1] was “did not change neuronal morphology”. Also, the “mitochondrial reductive potential (MTT)” value in series [1] is recorded as “comparable to vehicle-treated neurons”.
Consider `CCC(C)[C@H](NC(=O)[C@H](CCC(=O)O)NC(=O)[C@@H](NC(=O)OCc1ccccc1)C(C)C)C(=O)N[C@H](/C=C(\Cl)S(C)(=O)=O)CC(=O)O` (stereo partly shown) [NWL-154], for which the IC50 on recombinant Caspase-3 is 1340 nM; on recombinant Caspase-7, more than 100000 nM; at recombinant Caspase-5 it was 4190 nM; at recombinant Caspase-8, 530 nM; on recombinant Caspase-10, 190 nM. Moreover, the “toxicity in human neurons” value in series [1] is on record as “neither NWL-117 nor −154 is toxic”. In addition, the neuronal morphology entry in series [1] is “did not change neuronal morphology”. The “mitochondrial reductive potential (MTT)” value in series [1] is given as “comparable to vehicle-treated neurons”.
